System: EGLN3 mRNA level in Hep3B cells
Test: qRT-PCR of FIH-dependent HIF target gene EGLN3 in Hep3B cells
Format: cell-based
Conditions: for Upregulation of EGLN3 expression: absence of irradiation
Protocol: 5 […] sustainably engages with FIH and regulates the expression of FIH-dependent HIF target gene EGLN3 in Hep3B cells. (A) The CETSA assay was carried out with Hep3B cells grown in the presence of NBA-ZG-2291 (50 μM) for 12–48 h after 30 min of light activation (365 nm, 16 W). The intensity of the bands for grayscale analysis was referenced to the starting temperature (37 °C). α-Actinin was the sample loading control. n = 2; mean ± SD. […] (E) Correlation heatmap of the NBA-ZG-2291-treated group and the siFIH group by RNA-sequencing analysis. […] The relative fold change with respect to DMSO treated sample is shown (with normalization to HPRT gene levels). Mean ± SEM; n = 3. (G) TG level of NBA-ZG-2291-treated 3T3-L1-derived adipocytes. Mean ± SEM; n = 3. (H) Representative Oil Red O-stained images of the control, ZG-2291-treated, and NBA-ZG-2291-treated 3T3-L1-derived adipocytes. Scale Bar, 30 μm. P values were analyzed by two-way ANOVA comparing with the vehicle/control group (*, P < 0.05; **, P < 0.01; ***, P < 0.001, ****, P < 0.0001). See Methods (Quantitative PCR Analysis of Gene Expression) for assay details. TEXT PRINTED IN THE PICTURE: (A) no label printed: FIH: ΔTm (°C): 8.87 (Incubation time: 12 h); FIH: ΔTm (°C): 9.28 (Incubation time: 24 h); FIH: ΔTm (°C): 8.86 (Incubation time: 48 h); α-actinin: ΔTm (°C): 0.30 (Incubation time: 12 h); α-actinin: ΔTm (°C): -0.03 (Incubation time: 24 h); α-actinin: ΔTm (°C): -0.45 (Incubation time: 48 h) DOUBTS OF THE COPYIST ABOUT THIS PICTURE: Panel A: the picture prints no substance label with the ΔTm tables, so the label is left empty
The Egl-9 family hypoxia-inducible factor 3 gene (EGLN3, PHD3) is a HIF target gene, expression of which is negatively regulated by FIH catalysis, , potentially in a context-dependent manner. We therefore investigated the effect of the light-induced covalent inhibitor NBA-ZG-2291 on EGLN3 expression levels in Hep3B cells using ZG-2291 as a positive inhibition control. […] At a concentration of 10 μM, NBA-ZG-2291 increased EGLN3 expression by ∼2.5-fold with irradiation.
We also compared the time-dependent regulation of NBA-ZG-2291 on the HIF pathway with that of ZG-2291. […] This may result from the limited action time of the reversible inhibitor, perhaps due to its metabolism. The overall results provide strong evidence that the light-induced, lysine-targeting irreversible covalent inhibitor NBA-ZG-2291 can effectively and sustainably engage FIH, leading to the upregulation of FIH-dependent HIF target gene expression.

Structure (SMILES): O=C(O)CNC(=O)c1ncc(-c2cc(-c3ccc(CO)c([N+](=O)[O-])c3)no2)cc1O [NBA-ZG-2291]
- Upregulation of EGLN3 (0.3 μM, after 30 min light activation (365 nm, 16 W)): 1.35 fold
- Upregulation of EGLN3 expression (10 μM): did not result in significant upregulation
- Increase of EGLN3 expression (10 μM, with irradiation): ~2.5 fold
- Upregulation of EGLN3 expression (20 μM): very weak upregulation
- Increase of EGLN3 expression, time course (maintained from 6 to 48 h, after 30 min irradiation): 2.5 fold
